Biological target: T1, human topoisomerase I (Homo sapiens, UniProt P11387)
T1 construct: made in house; host or cells: Escherichia coli BL21 (DE3) harboring PET1B
T1 sequence (P11387 1-765): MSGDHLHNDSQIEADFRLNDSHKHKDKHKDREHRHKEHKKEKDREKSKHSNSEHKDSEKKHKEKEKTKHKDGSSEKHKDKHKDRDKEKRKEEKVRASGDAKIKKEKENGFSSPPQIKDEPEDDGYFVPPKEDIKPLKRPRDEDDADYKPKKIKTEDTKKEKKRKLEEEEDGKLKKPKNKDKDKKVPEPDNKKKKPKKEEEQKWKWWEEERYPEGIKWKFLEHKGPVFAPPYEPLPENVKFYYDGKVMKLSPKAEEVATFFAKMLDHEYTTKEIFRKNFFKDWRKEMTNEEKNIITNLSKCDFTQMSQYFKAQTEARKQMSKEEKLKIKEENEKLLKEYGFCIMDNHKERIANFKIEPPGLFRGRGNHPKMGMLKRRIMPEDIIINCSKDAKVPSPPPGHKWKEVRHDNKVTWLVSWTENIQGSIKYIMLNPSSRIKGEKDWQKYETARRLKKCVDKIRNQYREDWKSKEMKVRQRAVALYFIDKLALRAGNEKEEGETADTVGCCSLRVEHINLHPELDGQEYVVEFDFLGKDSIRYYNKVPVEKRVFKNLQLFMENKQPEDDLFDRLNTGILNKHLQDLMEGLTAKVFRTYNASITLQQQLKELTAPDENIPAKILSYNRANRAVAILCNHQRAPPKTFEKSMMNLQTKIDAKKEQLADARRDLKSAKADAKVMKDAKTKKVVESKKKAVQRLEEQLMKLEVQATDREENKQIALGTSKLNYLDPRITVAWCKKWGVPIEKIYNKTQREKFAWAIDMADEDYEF
Experiment: Topoisomerase I cleavage assay, human enzyme
Assay type: biochemical
Settings: recombinant human topoisomerase I
Method: Plasmid YEpG was also purified by the alkali lysis method followed by phenol deproteination and CsCl/ethidium isopycnic centrifugation as described by T. Maniatis et al., Molecular Cloning, A Laboratory Manual, Cold Spring Harbor Labs, N.Y. (1982) at pages 149-185. The end-labeling of the plasmid was accomplished as previously described by L. F. Liu et al., J. Biol. Chem., 258, 15365 (1983). The cleavage assays were performed as previously reported by A. Y. Chen et al., Cancer Res., 53, 1332 (1993). Human topoisomerase I was isolated as a recombinant fusion protein using a T7 expression system.
Subsequent steps in purification were the same as described previously for purification of recombinant human DNA topoisomerase I (B. Gatto et al., Cancer Res., 56, 2795 (1996)). Briefly, the supernatant was chromatographed directly onto a hydroxyapatite Bio-gel HTP (BioRad Laboratories, Richmond, Calif.) column. Fractions containing relaxation activity were pooled, diluted and then loaded onto a BioRex70 column (BioRad Laboratories, Richmond, Calif.). The column was developed with a linear gradient from 0.2 to 1M KCl. The peak fractions were pooled and dialyzed overnight at 4° C. against 30 mM potassium phosphate, 50% glycerol (v/v), 0.5 mM EDTA, and 1 mM DTT. Recombinant human topoisomerase I was purified from Escherichia coli BL21 (DE3) harboring PET1B as described previously (Gatto et al., Cancer Res., 56, 2795 (1996)).
DNA topoisomerase I cleavage assays were performed as described by Y.-H. Hsiang et al., J. Biol. Chem., 260, 14873 (1985). YEpG DNA was linearized with BamHI and then 3 '-end-labeled with Klenow polymerase and α[-^32 P]dCTP. Following phenol extraction and ethanol precipitation, the labeled DNA was resuspended in 10 mM Tris, pH 8.0, and 1 mM EDTA. The DNA cleavage assay was done in a reaction mixture (20 μl) containing 40 mM Tris-HCl, pH 7.8, 100 mM KCl, 10 mM MgCl2, 0.5 mM dithiothreitol, 0.5 mM EDTA, 30 μg/ml bovine serum albumin, 20 ng of labeled YEpG DNA, and […] of Aspergillus or human topoisomerase I diluted to various extents. Following incubation at 23° C. for 15 minutes, the reactions were terminated by the addition of SDS (final concentration 1%) and proteinase K (final concentration 200 μg/ml). Proteinase K treatment continued at 37° C. for another 1 hour. The terminated reactions were either alkali-denatured and then loaded (alkaline loading) or loaded directedly in neutral loading buffer (neutral loading) onto a 1% agarose gel in neutral TPE electrophoresis solution. Gel drying and autoradiography were performed as described by Hsiang et al., cited above.

In the case of `N#Cc1ccc2[nH]c(-c3ccc4[nH]c(-c5ccc6[nH]cnc6c5)nc4c3)nc2c1` [Compound 11, 5-Cyano-2-[2'-(benzimidazol-5"-yl)benzimidazol-5'-yl]benzimidazole], the “sensitivity of human topoisomerase I to poisoning / DNA cleavage with human topoisomerase I, in words” value is reported as “sensitive”.

With `c1ccc(-c2ccc3[nH]c(-c4ccc5[nH]c(-c6ccc7[nH]cnc7c6)nc5c4)nc3c2)cc1` [Compound 13, 5-Phenyl-2-[2'(benzimidazol-5"-yl)benzimidazol-5'-yl]benzimidazole] the “sensitivity of human topoisomerase I to poisoning / DNA cleavage with human topoisomerase I, in words” value was “sensitive”.

For `CCOc1ccc(-c2nc3cc(-c4nc5cc(N6CCN(C)CC6)ccc5[nH]4)ccc3[nH]2)cc1` [Hoechst 33342, 2'-(4-ethoxyphenyl)-5-(4-methyl-1-piperazinyl)-2,5'-bi-1H-benzimidazole], the “sensitivity of human topoisomerase I to poisoning / DNA cleavage with human topoisomerase I, in words” value was “sensitive”.

For `CC[C@@]1(O)C(=O)OCc2c1cc1n(c2=O)Cc2cc3ccccc3nc2-1` [camptothecin], the “sensitivity of human topoisomerase I to poisoning / DNA cleavage with human topoisomerase I, in words” value was “sensitive”.

Reference: patent publication US5770617A, “Terbenzimidazoles useful as antifungal agents” (Rutgers, The State University of New Jersey, priority 1997, dated 1998)
